Reference: ChEMBL document CHEMBL4842348 (J Med Chem, 2021)
Converted amounts (≈) assume the structure as drawn.

Assay: Solubility of the compound in pH 7 phosphate buffer by shake-flask method
Format: physicochemical
Details: not given
`COc1ccc(-c2ccc(C(=O)O)cc2C)cc1-c1cnc(C(F)(F)F)nc1CN1C(=O)O[C@H](c2cc(C(F)(F)F)cc(C(F)(F)F)c2)[C@@H]1C` gave a solubility thermodynamic of 6 µM (≈ 4.28 µg/mL). `COc1ccc(-c2ccc(C(=O)O)cc2C)cc1-c1cnc(N2CC(F)C2)nc1CN1C(=O)O[C@H](c2cc(C(F)(F)F)cc(C(F)(F)F)c2)[C@@H]1C` showed a solubility thermodynamic of 8 µM (≈ 5.75 µg/mL). Compound `COc1ncc(-c2ccc(C(=O)O)cc2C)cc1-c1ccc(C(F)(F)F)nc1CN1C(=O)O[C@H](c2cc(C(F)(F)F)cc(C(F)(F)F)c2)[C@@H]1C` has a solubility thermodynamic of 9 µM (≈ 6.42 µg/mL). `COc1ccc(-c2ccc(C(=O)O)cc2C)cc1-c1cnc(C(C)(F)F)nc1CN1C(=O)O[C@H](c2cc(C(F)(F)F)cc(C(F)(F)F)c2)[C@@H]1C` gave a solubility thermodynamic of 20 µM (≈ 14.2 µg/mL).

Assay: Lipophilicity, logD of the compound at pH 7.3 by HPLC analysis
Format: physicochemical
Details: buffer
In the case of `COc1ccc(-c2ccc(C(=O)O)cc2C)cc1-c1cnc(C(F)(F)F)nc1CN1C(=O)O[C@H](c2cc(C(F)(F)F)cc(C(F)(F)F)c2)[C@@H]1C`, the logD is reported as 4.9. `COc1ccc(-c2ccc(C(=O)O)cc2C)cc1-c1cnc(N2CC(F)C2)nc1CN1C(=O)O[C@H](c2cc(C(F)(F)F)cc(C(F)(F)F)c2)[C@@H]1C` showed a logD of 4.6. For `COc1ccc([C@H]2C[C@H](C(=O)O)C2)cc1-c1ccc(C(F)(F)F)cc1[C@@H]1CC[C@H]2[C@@H](c3cc(C(F)(F)F)cc(C(F)(F)F)c3)OC(=O)N12`, the logD was 5.1. With `COc1ccc(-c2ccc(C(=O)O)cc2C)cc1-c1c(C)cc(C(F)(F)F)cc1[C@@H]1CC[C@H]2[C@@H](c3cc(C(F)(F)F)cc(C(F)(F)F)c3)OC(=O)N12` the logD was 6. For `COc1ncc(-c2c(C)cc(C(=O)O)cc2C)cc1-c1ccc(C(F)(F)F)nc1[C@@H]1CC[C@H]2[C@@H](c3cc(C(F)(F)F)cc(C(F)(F)F)c3)OC(=O)N12`, the logD was 5.8. Compound `COc1ncc(-c2ccc(C(=O)O)cc2C)cc1-c1c(C)cc(C(F)(F)F)cc1[C@@H]1CC[C@H]2[C@@H](c3cc(C(F)(F)F)cc(C(F)(F)F)c3)OC(=O)N12` has a logD of 5.7. Compound `COc1ccc([C@H]2CCC(=O)N[C@@H]2C)cc1-c1ccc(C(F)(F)F)cc1[C@@H]1CC[C@H]2[C@@H](c3cc(C(F)(F)F)cc(C(F)(F)F)c3)OC(=O)N12` has a logD of 5.9. With `COc1ccc(-c2ccc(C(=O)O)cc2C)cc1-c1cnc(N(C)C)cc1[C@@H]1CC[C@H]2[C@@H](c3cc(C(F)(F)F)cc(C(F)(F)F)c3)OC(=O)N12` the logD was 4.6. With `COc1ncc(-c2ccc(C(=O)O)cc2C)cc1-c1ccc(C(F)(F)F)cc1[C@@H]1CC[C@H]2[C@@H](c3cccc(C(F)(F)F)c3)OC(=O)N12` the logD was 4.7. Work on `COc1ccc(-c2ccc(C(=O)O)cc2C)cc1-c1cnc(N2CCOCC2)nc1CN1C(=O)O[C@H](c2cc(C(F)(F)F)cc(C(F)(F)F)c2)[C@@H]1C` yielded a logD of 4.8. In the case of `COc1ncc(-c2ccc(C(=O)O)cc2C)cc1-c1cnc(C(F)(F)F)cc1CN1C(=O)O[C@H](c2cc(C(F)(F)F)cc(C(F)(F)F)c2)[C@@H]1C`, the logD is reported as 4.5. Compound `COc1ccc(-c2ccc(C(=O)O)cc2C)cc1-c1cnc(N(C)C)nc1CN1C(=O)O[C@H](c2cccc(C(F)(F)F)c2)[C@@H]1C` has a logD of 4.1. In the case of `COc1ccc(-c2ccc(C(=O)O)cc2C)cc1-c1cnc(N2CCCC2)nc1CN1C(=O)O[C@H](c2cc(C(F)(F)F)cc(C(F)(F)F)c2)[C@@H]1C`, the logD is reported as 5.2. In the case of `COc1ccc(CCC(=O)O)cc1-c1ccc(C(F)(F)F)cc1[C@@H]1CC[C@H]2[C@@H](c3cc(C(F)(F)F)cc(C(F)(F)F)c3)OC(=O)N12`, the logD is reported as 4.7. Work on `COc1cc(F)c(C(C)C)cc1-c1ccc(C(F)(F)F)cc1[C@@H]1CC[C@H]2[C@@H](c3cc(F)cc(C(F)(F)F)c3)OC(=O)N12` yielded a logD of 6.3. Compound `COc1ncc(-c2ccc(C(=O)O)cc2C)cc1-c1cnc(C(F)(F)F)cc1[C@@H]1CC[C@H]2[C@@H](c3cc(C(F)(F)F)cc(C(F)(F)F)c3)OC(=O)N12` has a logD of 4.6. Compound `COc1ccc(-c2ccc(C(=O)O)cc2C)cc1-c1cnc(N(C)C)nc1CN1C(=O)O[C@H](c2cncc(C(F)(F)F)c2)[C@@H]1C` has a logD of 3.3. Compound `COc1cc(F)c(C(C)C)cc1-c1ccc(F)cc1[C@@H]1CC[C@H]2[C@@H](c3cc(C(F)(F)F)cc(C(F)(F)F)c3)OC(=O)N12` has a logD of 7. `COc1ccc(-c2ccc(C(=O)O)cc2C)cc1-c1cnc(C(F)(F)F)cc1[C@@H]1CC[C@H]2[C@@H](c3cc(C(F)(F)F)cc(C(F)(F)F)c3)OC(=O)N12` gave a logD of 4.8. In the case of `COc1ccc(-c2ccc(C(=O)O)cc2C)cc1-c1cnc(N(C)C)nc1CN1C(=O)O[C@H](c2ccnc(C(F)(F)F)c2)[C@@H]1C`, the logD is reported as 3.2. For `COc1ccc(-c2ccc(C(=O)O)cc2C)cc1-c1cnc(N(C)C)nc1CN1C(=O)O[C@H](c2cc(Cl)cc(C(F)(F)F)c2)[C@@H]1C`, the logD was 4.6. `CCc1ncc(-c2cc(-c3ccc(C(=O)O)cc3C)ccc2OC)c(CN2C(=O)O[C@H](c3cc(C(F)(F)F)cc(C(F)(F)F)c3)[C@@H]2C)n1` showed a logD of 4.5. In the case of `COc1cc(F)c(C(C)C)cc1-c1cnc(N(C)C)nc1[C@@H]1CC[C@H]2[C@@H](c3cc(C(F)(F)F)cc(C(F)(F)F)c3)OC(=O)N12`, the logD is reported as 7. In the case of `COc1ccc(C(C)CC(=O)O)cc1-c1ccc(C(F)(F)F)cc1[C@@H]1CC[C@H]2[C@@H](c3cc(C(F)(F)F)cc(C(F)(F)F)c3)OC(=O)N12` (stereo partly specified), the logD is reported as 5. With `COc1cc(F)c(C(C)C)cc1-c1ccc(C(F)(F)F)cc1[C@@H]1CC[C@H]2[C@@H](c3cc(C)cc(C(F)(F)F)c3)OC(=O)N12` the logD was 7. `COc1ncc(-c2ccc(C(=O)O)cc2C)cc1-c1ccc(C(F)(F)F)cc1CN1C(=O)O[C@H](c2cc(C(F)(F)F)cc(C(F)(F)F)c2)[C@@H]1C` gave a logD of 5.4. For `COc1ccc(-c2ccc(C(=O)O)cc2C)cc1-c1cnc(N(C)C)nc1CN1C(=O)O[C@H](c2cccc(C(F)(F)F)n2)[C@@H]1C`, the logD was 3.8. In the case of `COc1ncc(-c2ccc(C(=O)O)cc2C)cc1-c1cnc(C(F)(F)F)nc1CN1C(=O)O[C@H](c2cc(C(F)(F)F)cc(C(F)(F)F)c2)[C@@H]1C`, the logD is reported as 4.9. In the case of `COc1cc(F)c(-c2ccc(C(=O)O)cc2C)cc1-c1ccc(F)cc1[C@@H]1CC[C@H]2[C@@H](c3cc(C(F)(F)F)cc(C(F)(F)F)c3)OC(=O)N12`, the logD is reported as 5.1. Work on `COc1ccc(-c2ccc(C(=O)O)cc2C)cc1-c1ncc(C(F)(F)F)cc1[C@@H]1CC[C@H]2[C@@H](c3cc(C(F)(F)F)cc(C(F)(F)F)c3)OC(=O)N12` yielded a logD of 4.6. Work on `COc1ccc(-c2ccc(C(=O)O)cc2C)cc1-c1cnc(N(C)C)nc1CN1C(=O)O[C@H](c2ccc(OC(F)(F)F)cc2)[C@@H]1C` yielded a logD of 4.3. With `COc1ncc(-c2ccc(C(=O)O)cc2C)cc1-c1ncc(C(F)(F)F)cc1[C@@H]1CC[C@H]2[C@@H](c3cc(C(F)(F)F)cc(C(F)(F)F)c3)OC(=O)N12` the logD was 4.5. For `COc1ccc(C2CNC(=O)OC2(C)C)cc1-c1ccc(C(F)(F)F)cc1[C@@H]1CC[C@H]2[C@@H](c3cc(C(F)(F)F)cc(C(F)(F)F)c3)OC(=O)N12` (stereo partly specified), the logD was 5.7. In the case of `COc1cc(F)c(C(C)C)cc1-c1cnc(N(C)C)cc1[C@@H]1CC[C@H]2[C@@H](c3cc(C(F)(F)F)cc(C(F)(F)F)c3)OC(=O)N12`, the logD is reported as 7. Compound `COc1ncc(-c2ccc(C(=O)O)cc2C)cc1-c1ccc(C(F)(F)F)nc1CN1C(=O)O[C@H](c2cc(C(F)(F)F)cc(C(F)(F)F)c2)[C@@H]1C` has a logD of 5.1. For `COc1cc(F)c(C(C)C)cc1-c1ccc(C(F)(F)F)cc1[C@@H]1CC[C@H]2[C@@H](c3cc(Cl)cc(Cl)c3)OC(=O)N12`, the logD was 6.1. In the case of `COc1ccc(-c2ccc(C(=O)O)cc2C)cc1-c1cnc(C(C)(F)F)nc1CN1C(=O)O[C@H](c2cc(C(F)(F)F)cc(C(F)(F)F)c2)[C@@H]1C`, the logD is reported as 4.6. `COc1ccc(-c2c(C)cc(C(=O)O)cc2C)cc1-c1ncc(C(F)(F)F)cc1[C@@H]1CC[C@H]2[C@@H](c3cc(C(F)(F)F)cc(C(F)(F)F)c3)OC(=O)N12` gave a logD of 4.8. `COc1cc(F)c(-c2ccc(C(=O)O)cc2C)cc1-c1cc(C)c(C(F)(F)F)cc1[C@@H]1CC[C@H]2[C@@H](c3cc(C(F)(F)F)cc(C(F)(F)F)c3)OC(=O)N12` showed a logD of 6. `COc1cc(F)c(-c2ccc(C(=O)O)cc2C)cc1-c1cnc(C2CC2)cc1[C@@H]1CC[C@H]2[C@@H](c3cc(C(F)(F)F)cc(C(F)(F)F)c3)OC(=O)N12` gave a logD of 4.8. For `COc1ccc([C@H]2CC[C@H](C(=O)O)CC2)cc1-c1ccc(C(F)(F)F)cc1[C@@H]1CC[C@H]2[C@@H](c3cc(C(F)(F)F)cc(C(F)(F)F)c3)OC(=O)N12`, the logD was 5.6. Work on `COc1ccc(-c2ccc(C(=O)O)cc2C)cc1-c1ccc(N(C)C)nc1[C@@H]1CC[C@H]2[C@@H](c3cc(C(F)(F)F)cc(C(F)(F)F)c3)OC(=O)N12` yielded a logD of 5.8. `COc1ncc(-c2ccc(C(=O)O)cc2C)cc1-c1cc(C)c(C(F)(F)F)cc1[C@@H]1CC[C@H]2[C@@H](c3cc(C(F)(F)F)cc(C(F)(F)F)c3)OC(=O)N12` showed a logD of 5.8. For `COc1cc(F)c(C(C)C)cc1-c1ccc(C(F)(F)F)cc1[C@@H]1CC[C@H]2[C@@H](c3cc(C(F)(F)F)cc(C(F)(F)F)c3)OC(=O)N12`, the logD was 7.1. Work on `COc1ccc(-c2ccc(C(=O)O)cc2C)cc1-c1cnc(N(C)C)nc1CN1C(=O)O[C@H](c2cccc(OC(F)(F)F)c2)[C@@H]1C` yielded a logD of 4.3. In the case of `COc1ccc(-c2ccc(C(=O)O)cc2C)cc1-c1cnc(C(F)(F)F)cc1CN1C(=O)O[C@H](c2cc(C(F)(F)F)cc(C(F)(F)F)c2)[C@@H]1C`, the logD is reported as 4.7. Work on `COc1ncc(-c2ccc(C(=O)O)cc2C)cc1-c1ccc(C(F)(F)F)cc1[C@@H]1CC[C@H]2[C@@H](c3cc(F)cc(C(F)(F)F)c3)OC(=O)N12` yielded a logD of 5. Compound `COc1cc(F)c(C(C)C)cc1-c1ccc(N(C)C)nc1[C@@H]1CC[C@H]2[C@@H](c3cc(C(F)(F)F)cc(C(F)(F)F)c3)OC(=O)N12` has a logD of 6.9. Work on `COc1ccc(-c2ccc(C(=O)O)cc2C)cc1-c1cnc(N(C)C)nc1CN1C(=O)O[C@H](c2cc(F)cc(F)c2)[C@@H]1C` yielded a logD of 3.8. For `COc1ccc([C@@H]2C[C@@H](O)[C@@H](O)C2)cc1-c1ccc(C(F)(F)F)cc1[C@@H]1CC[C@H]2[C@@H](c3cc(C(F)(F)F)cc(C(F)(F)F)c3)OC(=O)N12`, the logD was 5.7. With `COc1cc(F)c(C(C)C)cc1-c1ccc(C(F)(F)F)cc1[C@@H]1CC[C@H]2[C@@H](c3cccc(C(F)(F)F)c3)OC(=O)N12` the logD was 6.1. `COc1ccc(-c2c(C)cc(C(=O)O)cc2C)cc1-c1ccc(C(F)(F)F)cc1[C@@H]1CC[C@H]2[C@@H](c3cc(C(F)(F)F)cc(C(F)(F)F)c3)OC(=O)N12` gave a logD of 5.4. `COc1cc(F)c(-c2ccc(C(=O)O)cc2C)cc1-c1ccc(C(F)(F)F)cc1[C@@H]1CC[C@H]2[C@@H](c3cc(F)cc(C(F)(F)F)c3)OC(=O)N12` gave a logD of 5.1. Work on `COc1ccc(-c2ccc(C(=O)O)cc2C)cc1-c1cnc(N(C)C)nc1CN1C(=O)O[C@H](c2cccc(Cl)c2)[C@@H]1C` yielded a logD of 4. Work on `COc1ccc(-c2ccc(C(=O)O)cc2C)cc1-c1cnc(N(C)C)nc1CN1C(=O)O[C@H](c2cc(Cl)cc(Cl)c2)[C@@H]1C` yielded a logD of 4.6. For `COc1cc(F)c(C(C)C)cc1-c1ccc(C(F)(F)F)cc1[C@@H]1CC[C@H]2[C@@H](c3cc(Cl)cc(C(F)(F)F)c3)OC(=O)N12`, the logD was 6.5. In the case of `COc1cc(F)c(-c2ccc(-c3nnc(N)o3)cc2C)cc1-c1ccc(C(F)(F)F)cc1[C@@H]1CC[C@H]2[C@@H](c3cc(C)cc(C(F)(F)F)c3)OC(=O)N12`, the logD is reported as 6.6.
